According to PMC9822133, “Design, Synthesis and Antiproliferative Evaluation of Bis-Indole Derivatives with a Phenyl Linker: Focus on Autophagy” (Molecules, 2022):

Experiments:
[1] = tested on: A549 human lung cancer cells; assay: MTT assay with cis-platin alone or combined with compound 49; type: cell-based; conditions: A549, CisPt alone 10.0 μM, 72 h
Excerpt: Furthermore, the depletion of GSH has been documented to potentiate the effect of anticancer drugs. Glutathione plays an important role in cisPt detoxification, so depletion of GSH is believed to potentiate the cisPt-induced DNA damage and increase the chemosensitivity of cancer cells to this anticancer drug. Due to the GSH-depleting effect of compound 49, we performed a set of experiments with cis-platin (CisPt) alone or in combination with compound 49 (Figure 9). […] Simultaneous treatments with CisPt (10 μM) and 20 μM of compound 49 caused a 59% reduction in cell growth.
(§1) The MTT assay is a colorimetric method used to quantify the metabolic activity of cells. MTT (3-(4,5-di-methylthiazol-2-yl)2,5-diphenyltetrazolium bromide) (Sigma-Aldrich Chemie, Steinheim, Germany) is reduced by oxidoreductases in the cytosol of cells to light-absorbing formazan, the presence of which can be measured spectrophotometrically and determines the half-maximal inhibitory concentration (IC50). […]
(§2) We also incubated the cells with chloroquine at concentrations of 5–20 µM, which was added 1 h before the addition of the test substance, and cisplatin at concentrations of 3–10 µM. […] After 24 h, the absorbance was measured at a wavelength of 540 nm using an automated Cytation™ 3 Cell Imaging Multi-Mode Reader (Biotek, Winooski, VT, USA). […]

A549 = assay: MTT screening assay, A549; type: cell-based; conditions: Homo sapiens, 72 h incubation
Excerpt: (§3) The ability of newly synthesized indole phytoalexins to suppress cell proliferation was screened in vitro on eight cancer cell lines including human colorectal carcinoma (Caco-2 and HCT116), human cervical cancer (HeLa), human breast adenocarcinoma (MCF-7, MDA-MB-231), human alveolar adenocarcinoma (A549) and human leukemic T cell lymphoma (Jurkat), and two non-cancer cell lines (MCF-10A, Cos-7).
(§4) The cell lines used for this study were Caco-2 (human colorectal adenocarcinoma cell line, American Type Culture Collection, Manassas, VA, USA (ATCC)), HCT116 (human colorectal carcinoma cells European Collection of Authenticated Cell Cultures, Salisbury, UK (ECACC)), HeLa (human cervical tumor cells, ECACC), MCF-7 (human breast tumor cells, ECACC), MDA-MB-231 (human breast tumor cells, ATCC), A549 (human lung carcinoma cells, ATCC), BLM (human melanoma lung metastases, a gift from prof. K. Smetana, Institute of Anatomy, Charles University in Prague), Jurkat (human leukemia cell line, ECACC), Cos-7 (immortalized monkey kidney fibroblasts, ATCC) and MCF-10A (human mammary epithelial cells, ATCC). Caco-2, MCF-7, BLM, Cos-7 and A549 cells were cultured in Dulbecco’s Modified Eagle’s Medium (DMEM) with high glucose and sodium pyruvate (GE Healthcare, Piscataway, NJ, USA); HCT116 lines, HeLa, MDA-MB-231 and Jurkat were cultured in RPMI-1640 medium; and MCF10A cells were cultured in high glucose DMEM/F12 (Dulbecco’s Modified Eagle’s Medium F12). The media were enriched with 10% fetal bovine serum (FBS) and a 1% solution of a mixture of antibiotics and antimycotics 1× HyClone™ (GE Healthcare, Chicago, IL, USA). DMEM/F12 medium was supplemented with epidermal growth factor (EGF) (20 ng/mL final), hydrocortisone (0.5 μg/mL final) and insulin (10 μg/mL final) (Sigma-Aldrich Chemie, Steinheim, Germany). The cells were placed in an incubator at 37 °C with humidified air containing 5% CO2.
as §1, with “(IC50). A549 cells were seeded in […] culture plates at a density of 5 × 10^3 per well.” for “(IC50).”
as §2

MDA-MB-231 = assay: MTT screening assay, MDA-MB-231; type: cell-based; conditions: Homo sapiens, 72 h incubation
Excerpt: as §3, §4
as §1, with “(IC50). A549 cells were seeded in […] culture plates at a density of 5 × 10^3 per well.” for “(IC50).”
as §2

Cos-7 = assay: MTT screening assay, Cos-7 non-cancer cells; type: cell-based, monkey; conditions: Primates, 72 h incubation
Excerpt: as §3, §4
as §1, with “(IC50). A549 cells were seeded in […] culture plates at a density of 5 × 10^3 per well.” for “(IC50).”
as §2

BLM = assay: MTT screening assay, BLM; type: cell-based; conditions: Homo sapiens, 72 h incubation
MCF10A = assay: MTT screening assay, MCF10A non-cancer cells; type: cell-based, human; conditions: Homo sapiens, MCF-10A; 72 h incubation, MTT, non-cancer cells
Excerpt: as §3, §4
(§5) The MTT assay is a colorimetric method used to quantify the metabolic activity of cells. MTT (3-(4,5-di-methylthiazol-2-yl)2,5-diphenyltetrazolium bromide) (Sigma-Aldrich Chemie, Steinheim, Germany) is reduced by oxidoreductases in the cytosol of cells to light-absorbing formazan, the presence of which can be measured spectrophotometrically and determines the half-maximal inhibitory concentration (IC50). A549 cells were seeded in […] culture plates at a density of 5 × 10^3 per well. After 24 h of cultivation, the tested substance 49 was added in concentrations of 10, 50 and 100 µM.
We also incubated the cells with chloroquine at concentrations of 5–20 µM, which was added 1 h before the addition of the test substance, and cisplatin at concentrations of 3–10 µM. Cisplatin was added 24 h after the addition of 49. After 72 h of incubation, 10 µL of MTT (5 mg/mL) was added to each well. After 4 h, formazan crystals formed in the wells, which were dissolved in 100 uL of 10% SDS (sodium dodecyl sulfate). After 24 h, the absorbance was measured at a wavelength of 540 nm using an automated Cytation™ 3 Cell Imaging Multi-Mode Reader (Biotek, Winooski, VT, USA). These experiments were performed in three independent replicates.

Caco-2 = assay: MTT screening assay, Caco-2; type: cell-based; conditions: Homo sapiens, 72 h incubation
Excerpt: as §3, §4
as §5, with “After 24 h of cultivation, the tested substance 49 was added in concentrations of 10, 50 and 100 µM.” left out
as §2

HCT116 = assay: MTT screening assay, HCT116; type: cell-based; conditions: Homo sapiens, HCT-116, 72 h incubation
Excerpt: as §3, §4
as §5, with “After 24 h of cultivation, the tested substance 49 was added in concentrations of 10, 50 and 100 µM.” left out
as §2

HeLa = assay: MTT screening assay, HeLa; type: cell-based; conditions: Homo sapiens, 72 h incubation
Excerpt: as §3, §4
as §5, with “After 24 h of cultivation, the tested substance 49 was added in concentrations of 10, 50 and 100 µM.” left out
as §2

Jurkat = assay: MTT screening assay, Jurkat; type: cell-based; conditions: Homo sapiens, 72 h incubation
Excerpt: as §3, §4
as §5, with “After 24 h of cultivation, the tested substance 49 was added in concentrations of 10, 50 and 100 µM.” left out
as §2

MCF-7 = assay: MTT screening assay, MCF-7; type: cell-based; conditions: Homo sapiens, MCF7, 72 h incubation
Excerpt: as §3, §4
as §5, with “After 24 h of cultivation, the tested substance 49 was added in concentrations of 10, 50 and 100 µM.” left out
as §2

For N.N.[Cl][Pt][Cl] [CisPt, cis-platin, reference compound], the “reduction of cell growth” value [1] was 39%.

With CC(C)(C)OC(=O)n1cc(CNC(=S)Nc2ccc(NC(=S)NCc3cn(C(=O)OC(C)(C)C)c4ccccc34)cc2)c2ccccc21 [Compound 48, N,N′-(1,4-phenylene)bis{N′-[1-(tert-butoxycarbonyl)indol-3-yl]methyl (thiourea)}] the IC50 (A549) was 73.1 ± 7.3 µM, the IC50 (MDA-MB-231) was 46 ± 2.5 µM and the IC50 (Cos-7) was 78.3 ± 2.6 µM. For the same compound, the IC50 (BLM) was 77.1 ± 4.3 µM, the IC50 (MCF10A) was 67.3 ± 1.9 µM and the IC50 (Caco-2) was 51.7 ± 4.1 µM. It also gave an IC50 (HCT116) of 51.9 ± 4.7 µM, an IC50 (HeLa) of 65.3 ± 5.3 µM and an IC50 (Jurkat) of 38.8 ± 2.9 µM. For the same compound, the melting point was 204 to 206 °C and the IC50 (MCF-7) was 77 ± 2.1 µM.

In the case of CC(C)(C)OC(=O)n1cc(CN2C(=O)CSC2=Nc2ccc(N=C3SCC(=O)N3Cc3cn(C(=O)OC(C)(C)C)c4ccccc34)cc2)c2ccccc21 [Compound 51a, 2,2′-[1,4-phenylenebis(azanylylidene)]bis{3-[(1-(tert-butoxycarbonyl)-indol-3-yl)methyl]-1,3-thiazolidin-4-one}], the IC50 (A549) is reported as 93.8 ± 1 µM, the IC50 (MDA-MB-231) is reported as greater than 100 µM and the IC50 (Cos-7) is reported as greater than 100 µM. The IC50 (BLM) was greater than 100 µM, the IC50 (MCF10A) was greater than 100 µM and the IC50 (Caco-2) was greater than 100 µM. For the same compound, the IC50 (HCT116) was 97.7 ± 3.2 µM, the IC50 (HeLa) was greater than 100 µM and the IC50 (Jurkat) was greater than 100 µM. For the same compound, the melting point was 196 to 198 °C and the IC50 (MCF-7) was greater than 100 µM.

Compound CO[C@@H]1N(C(=O)OC(C)(C)C)c2ccccc2[C@]12CN=C(Nc1ccc(NC3=NC[C@]4(S3)c3ccccc3N(C(=O)OC(C)(C)C)[C@@H]4OC)cc1)S2 [Compound 52a, N,N′-bis[1-(tert-Butoxycarbonyl)-2-methoxy-spiro{indoline-3,5′-[4′,5′]dihydrothiazol-2′-yl}]benzene-1,4-diamine] has an IC50 (A549) of 5.95 ± 0.2 µM, an IC50 (MDA-MB-231) of 8.3 ± 3.2 µM and an IC50 (Cos-7) of 7.15 ± 0.3 µM. The IC50 (BLM) was 7.4 ± 2.5 µM, the IC50 (MCF10A) was 10.1 ± 6.2 µM and the IC50 (Caco-2) was 6.1 ± 2.1 µM. It also gave an IC50 (HCT116) of 5.8 ± 0.3 µM, an IC50 (HeLa) of 6.4 ± 0.7 µM and an IC50 (Jurkat) of 6.1 ± 0.7 µM. The IC50 (MCF-7) was 62.9 ± 3.9 µM.
